Assay results from PubChem BioAssay (NCI).
Values joined by “and” are separate entries in the source; they are usually repeats but may differ in a detail not shown here. Equal values may be shown once.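 Method: 48-hour compound exposure of cells in 96-well plates, five concentrations, linear interpolation of endpoints. Here, GI50 denotes the concentration required for 50% inhibition of growth. The concentration for full growth arrest is given as TGI.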

Assays:
Assay in all cases: NCI tumour cell line growth inhibition, 48 h
[1] = test system: T-47D breast
[2] = test system: KM20L2 colon
[3] = test system: DMS 114 small cell lung
[4] = test system: RXF-631 renal
[5] = test system: LXFL 529 NSCLC
[6] = test system: MDA-N

SMILES	GI50 [1]	TGI [1]	TGI [2]	TGI [3]	TGI [4]	TGI [5]	TGI [6]
CCNCCNc1cc(-c2ccc(F)cc2)c(C#N)c2nc3ccccc3n12	2.26 µM	4.63 µM					
COc1cc(C2C(C#N)=C(N)OC3=C2C(=O)c2ccccc2C3=O)cc(OC)c1OC (centres undefined)	3.72 µM	20.4 µM					
N#Cc1nc(-c2ccccc2)oc1S(=O)(=O)N1CCOCC1	1.78 µM	3.84 µM					
COc1ccc2c3c(c(OCCCN(C)C)nc2c1)-c1ccc(Cl)cc1C3=O	12.5 µM	48.3 µM					
CC(=O)N1CC(F)(F)c2c(Sc3ncc(N4CCC5(CC4)COC[C@H]5N)nc3N)cccc21	17.6 µM	> 100 µM					
O=C(/C=C/c1cccc(Cl)c1)c1ccc(Cl)cc1Cl	9.11 µM	25.9 µM					
CC[C@H](C)[C@H](NC(=O)C12C3C4C1C1C2C3C41NC(C)=O)C(=O)N(C)[C@H](C[C@@H](OC(C)=O)c1nc(C(=O)N[C@@H](Cc2ccccc2)C[C@H](C)C(=O)OC)cs1)C(C)C (some centres undefined)	> 14.3 µM	> 14.3 µM					
O=C1C(c2ccccc2)=C(c2ccccc2)C(c2ccc(CCCCCCc3ccc(C4=C(c5ccccc5)C(=O)C(c5ccccc5)=C4c4ccccc4)cc3)cc2)=C1c1ccccc1			> 100 µM	> 100 µM	> 100 µM	> 100 µM	
O=c1nc2cc(-c3ccccc3)[nH]c2nn1-c1c(Cl)cc(Cl)cc1Cl			57.5 µM	> 100 µM	> 100 µM	> 100 µM	
Oc1ccccc1-n1c(-c2ccccc2)ccc1-c1ccccc1	4.12 µM	32.9 µM					
COc1ccc(C(=O)C=C2NCCN2)cc1			> 100 µM	> 100 µM		> 100 µM	
O=[N+]([O-])c1ccc(Cl)c(C2SCc3nc4ccccc4n32)c1 (centres undefined)				> 100 µM		> 100 µM	
COc1ccc(/C=C\c2cc(OC)c(OC)c(OC)c2)c(NS(=O)(=O)c2ccc(C)cc2)c1O	21 µM	> 100 µM					
COc1ccc(O)c2c1C(=O)CCCC2=O			> 100 µM	> 100 µM	> 100 µM	> 100 µM	
COc1ccc(NC(=O)c2cc(OC)c(OC)c(OC)c2)cc1O	9.89 µM	> 100 µM					
COc1cc(C2C(C(=O)Nc3ccccc3)=C(C)NC(C)=C2C(=O)Nc2ccccc2)ccc1O			40 µM	> 100 µM		> 100 µM	
CN(O)C(=O)Cc1ccccc1			> 100 µM	> 100 µM		> 100 µM	
CCc1cccc(C)c1NC(=O)NS(=O)(=O)c1ccc(C)cc1			> 100 µM	> 100 µM	> 100 µM	> 100 µM	
COc1ccc(NC(=O)C(=O)C2NC(=S)NC2=O)c(OC)c1 (centres undefined)			> 100 µM	> 100 µM	> 100 µM	> 100 µM	
Cn1c(=O)c2[nH]c(COc3ccc(C(C)(C)C)cc3)nc2n(C)c1=O	11.9 µM	> 100 µM					

SMILES	GI50 [1]	TGI [1]	TGI [2]	TGI [3]	TGI [4]	TGI [5]	TGI [6]
Cc1cc(C)nc(NS(=O)(=O)c2ccc(NC(=O)c3cccc4cc5ccccc5nc34)cc2)n1			> 100 µM		> 100 µM	> 100 µM	
COC(=O)C1=C(C(=O)OC)C2(C(=O)OC)OC1(OC)C(C1(C(=O)OC)C(C(=O)OC)=C1C(=O)OC)=C2C(=O)OC (centres undefined)			> 100 µM	> 100 µM		> 100 µM	
FC(F)(F)c1ccc(-c2cnc(Br)nc2NC2CCCCCC2)cc1	19.6 µM	> 100 µM					
O=C(/C=C\c1ccnc2ccccc12)c1ccc([N+](=O)[O-])cc1	4.19 µM	> 66.4 µM					
Cc1cc(C)c(C(=O)OC(c2ccccc2)C(c2ccccc2)N2CCOCC2)c(C)c1 (centres undefined)			> 100 µM	> 100 µM	> 100 µM	> 100 µM	
COc1ccc(C(Nc2ncccn2)c2cc3c(cc2O)OCO3)cc1 (centres undefined)		28 µM					42.3 µM
CC#CC(=O)N1CCC[C@H]1c1nc(-c2ccc(C(=O)Nc3ccccn3)cc2)c2c(N)nccn12	10.1 µM	> 100 µM					
C=C(C)[C@H]1CC/C(C)=C/CCC(C)C(=O)CC/C(CO)=C\[C@@H]1O (some centres undefined)	> 100 µM	> 100 µM					
C#Cc1ccc(NC(=O)c2ccc(/C=C/C(=O)c3nccn3C)cc2)cc1	0.521 µM	2.44 µM					
O=[N+]([O-])c1ccccc1C1N2CCCCC2[C@@H]2c3[nH]c4ccccc4c3CCN12 (some centres undefined)			25.1 µM	14.7 µM	32.8 µM	22.8 µM	
O=C1C2=C(c3ccccc31)C(c1ccccc1Cl)N1C(=O)CSC1=N2 (centres undefined)			> 100 µM	> 100 µM	> 100 µM	> 100 µM	
CC(C)C(N)(C(=O)O)c1ccccc1 (centres undefined)		> 100 µM					> 100 µM
Cc1nc(NC(=O)N2CCC[C@H]2C(N)=O)sc1-c1ccnc(C(C)(C)C(F)(F)F)c1	0.0412 µM and 0.0507 µM	1.79 µM and 0.599 µM					
C[C@@H]1CC[C@@]2(OC1)O[C@H]1C[C@H]3[C@@H]4CC=C5C[C@@H](O[C@@H]6O[C@H](CO)[C@@H](O[C@@H]7O[C@@H](CO)[C@H](O)[C@H]7O)[C@H](O)[C@H]6O[C@@H]6O[C@@H](C)[C@H](O)[C@@H](O)[C@H]6O)CC[C@]5(C)[C@H]4CC[C@]3(C)[C@H]1[C@@H]2C	1.39 µM	2.73 µM					
COc1ccccc1-n1c(SCc2cc(OC)c(OC)c(OC)c2)nc2ccc(Cl)cc2c1=O	4.95 µM	> 100 µM					
COc1ccc(C(O)c2cc3c(N)c(C(=O)Nc4cccc(Br)c4)sc3nc2C)cc1 (centres undefined)	22.5 µM	> 100 µM					
O=c1[nH]c(=S)[nH]c(O)c1/C=C1\C=CC=N1			41.1 µM	23.3 µM		21.9 µM	
COc1cc(Br)c(CC2=NCCc3cc(OC)c(OC)cc32)cc1OC			> 100 µM	68.1 µM	> 100 µM	> 100 µM	
CC1=C2C(c3ccccc3)(c3ccccc3)C3C=CC2(C=N3)N(C(=O)NC2CCCCC2)C1=O (centres undefined)			30.6 µM	32.5 µM	26.2 µM	30.1 µM	
